Tests used:
Format in all cases: in vivo
Kochia (Kochia scoparia) [1] = assay: Test A preemergence; conditions: Bassia scoparia, pre-emergence, 240 h, preemergence, 0 to 100 scale where 0 is no effect and 100 is complete control, read-out: Kochia plant response rating; for pest or weed control at 125 g/ha: 125 g ai/ha, approx. 10 d; for pest or weed control at 500 g/ha: 500 g ai/ha
Summary of the method: (§1)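 Visual injury, scored on a 0–100 scale relative to untreated controls, was recorded about 10 d after application. Treatments were a preemergence soil spray over planted seeds or a postemergence spray on plants at the one- to two-leaf stage, 2 to 10 cm tall, all in loam soil–sand blend in the greenhouse.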

[2] = tested on: barnyardgrass (Echinochloa crus-galli); assay: Test A preemergence; conditions: Echinochloa crus-galli, pre-emergence, 240 h, preemergence, 0 to 100 scale where 0 is no effect and 100 is complete control, read-out: Barnyardgrass plant response rating; for pest or weed control at 125 g/ha: 125 g ai/ha, approx. 10 d; for pest or weed control at 500 g/ha: 500 g ai/ha
Summary of the method: as §1

[3] = tested on: giant foxtail (Setaria faberii); assay: Test A preemergence; conditions: Setaria faberi, pre-emergence, 240 h, preemergence, 0 to 100 scale where 0 is no effect and 100 is complete control, read-out: Foxtail, Giant plant response rating; for pest or weed control at 125 g/ha: 125 g ai/ha, approx. 10 d; for pest or weed control at 500 g/ha: 500 g ai/ha
Summary of the method: as §1

[4] = tested on: pigweed (Amaranthus retroflexus); assay: Test A preemergence; conditions: Amaranthus retroflexus, pre-emergence, 240 h, preemergence, 0 to 100 scale where 0 is no effect and 100 is complete control, read-out: Pigweed plant response rating; for pest or weed control at 125 g/ha: 125 g ai/ha, approx. 10 d; for pest or weed control at 500 g/ha: 500 g ai/ha
[5] = tested on: ragweed (common ragweed, Ambrosia elatior); assay: Test A preemergence; conditions: Ambrosia artemisiifolia, pre-emergence, 240 h, preemergence, 0 to 100 scale where 0 is no effect and 100 is complete control, read-out: Ragweed plant response rating; for pest or weed control at 125 g/ha: 125 g ai/ha, approx. 10 d; for pest or weed control at 500 g/ha: 500 g ai/ha
Summary of the method: as §1

[6] = tested on: ryegrass, Italian (Italian ryegrass, Lolium multiflorum); assay: Test A preemergence; conditions: Lolium multiflorum, pre-emergence, 240 h, preemergence, 0 to 100 scale where 0 is no effect and 100 is complete control, read-out: Ryegrass, Italian plant response rating; for pest or weed control at 125 g/ha: 125 g ai/ha, approx. 10 d; for pest or weed control at 500 g/ha: 500 g ai/ha
Summary of the method: as §1

[7] = tested on: Galium (catchweed bedstraw, Galium aparine); assay: Test A postemergence; conditions: Galium, post-emergence, 240 h, postemergence, read-out: Galium plant response rating; for pest or weed control at 125 g/ha: 125 g ai/ha, visual injury on 0 to 100 scale (0 no effect, 100 complete control), approx. 10 d; for pest or weed control at 500 g/ha: 500 g ai/ha, 0 to 100 scale, 0 is no effect, 100 is complete control
Summary of the method: as §1

Kochia (Kochia scoparia) [8] = assay: Test A postemergence; conditions: Bassia scoparia, post-emergence, 240 h, postemergence, read-out: Kochia plant response rating; for pest or weed control at 125 g/ha: 125 g ai/ha, visual injury on 0 to 100 scale (0 no effect, 100 complete control), approx. 10 d; for pest or weed control at 500 g/ha: 500 g ai/ha, 0 to 100 scale, 0 is no effect, 100 is complete control
Summary of the method: as §1

[9] = tested on: barnyardgrass (Echinochloa crus-galli); assay: Test A postemergence; conditions: Echinochloa crus-galli, post-emergence, 240 h, postemergence, read-out: Barnyardgrass plant response rating; for pest or weed control at 125 g/ha: 125 g ai/ha, visual injury on 0 to 100 scale (0 no effect, 100 complete control), approx. 10 d; for pest or weed control at 500 g/ha: 500 g ai/ha, 0 to 100 scale, 0 is no effect, 100 is complete control
Summary of the method: as §1

[10] = tested on: blackgrass (Alopecurus myosuroides); assay: Test A postemergence; conditions: Alopecurus myosuroides, post-emergence, 240 h, postemergence, read-out: Blackgrass plant response rating; for pest or weed control at 125 g/ha: 125 g ai/ha, visual injury on 0 to 100 scale (0 no effect, 100 complete control), approx. 10 d; for pest or weed control at 500 g/ha: 500 g ai/ha, 0 to 100 scale, 0 is no effect, 100 is complete control
Summary of the method: as §1

corn (Zea mays) = assay: Test A postemergence; conditions: Zea mays, post-emergence, 240 h, postemergence, read-out: Corn plant response rating; for plant injury at 125 g/ha: 125 g ai/ha, visual injury on 0 to 100 scale (0 no effect, 100 complete control), approx. 10 d; for plant injury at 500 g/ha: 500 g ai/ha, 0 to 100 scale, 0 is no effect, 100 is complete control
Summary of the method: as §1

[11] = tested on: giant foxtail (Setaria faberii); assay: Test A postemergence; conditions: Setaria faberi, post-emergence, 240 h, postemergence, read-out: Foxtail, Giant plant response rating; for pest or weed control at 125 g/ha: 125 g ai/ha, visual injury on 0 to 100 scale (0 no effect, 100 complete control), approx. 10 d; for pest or weed control at 500 g/ha: 500 g ai/ha, 0 to 100 scale, 0 is no effect, 100 is complete control
Summary of the method: as §1

[12] = tested on: pigweed (Amaranthus retroflexus); assay: Test A postemergence; conditions: Amaranthus retroflexus, post-emergence, 240 h, postemergence, read-out: Pigweed plant response rating; for pest or weed control at 125 g/ha: 125 g ai/ha, visual injury on 0 to 100 scale (0 no effect, 100 complete control), approx. 10 d; for pest or weed control at 500 g/ha: 500 g ai/ha, 0 to 100 scale, 0 is no effect, 100 is complete control
Summary of the method: as §1

[13] = tested on: ryegrass, Italian (Italian ryegrass, Lolium multiflorum); assay: Test A postemergence; conditions: Lolium multiflorum, post-emergence, 240 h, postemergence, read-out: Ryegrass, Italian plant response rating; for pest or weed control at 125 g/ha: 125 g ai/ha, visual injury on 0 to 100 scale (0 no effect, 100 complete control), approx. 10 d; for pest or weed control at 500 g/ha: 500 g ai/ha, 0 to 100 scale, 0 is no effect, 100 is complete control
Summary of the method: as §1

[14] = tested on: wheat (Triticum aestivum); assay: Test A postemergence; conditions: Triticum aestivum, post-emergence, 240 h, postemergence, read-out: Wheat plant response rating; for plant injury at 125 g/ha: 125 g ai/ha, visual injury on 0 to 100 scale (0 no effect, 100 complete control), approx. 10 d; for plant injury at 500 g/ha: 500 g ai/ha, 0 to 100 scale, 0 is no effect, 100 is complete control
Summary of the method: as §1

| Structure (SMILES) | pest or weed control at 125 g/ha (Kochia (Kochia scoparia) [1]) | pest or weed control at 500 g/ha (Kochia (Kochia scoparia) [1]) | pest or weed control at 125 g/ha [2] | pest or weed control at 500 g/ha [2] | pest or weed control at 125 g/ha [3] | pest or weed control at 500 g/ha [3] | pest or weed control at 125 g/ha [4] | pest or weed control at 500 g/ha [4] | pest or weed control at 125 g/ha [5] | pest or weed control at 500 g/ha [5] | pest or weed control at 125 g/ha [6] | pest or weed control at 500 g/ha [6] | pest or weed control at 125 g/ha [7] | pest or weed control at 500 g/ha [7] | pest or weed control at 125 g/ha (Kochia (Kochia scoparia) [8]) | pest or weed control at 500 g/ha (Kochia (Kochia scoparia) [8]) | pest or weed control at 125 g/ha [9] | pest or weed control at 500 g/ha [9] | pest or weed control at 125 g/ha [10] | pest or weed control at 500 g/ha [10] | further results |
| --- | --- | --- | --- | --- | --- | --- | --- | --- | --- | --- | --- | --- | --- | --- | --- | --- | --- | --- | --- | --- | --- |
| O=C1NC[C@H](c2ccc(F)c(OC(F)(F)C(F)F)c2)[C@H]1C(=O)Nc1ccccc1F [Compound 1133] | 60% | 100% | 90% | 90% | 90% | 90% | 30% | 70% | 40% | 60% | 20% | 30% | 70% | 70% | 30% | 70% | 80% | 90% | 30% | 70% | plant injury at 125 g/ha (corn (Zea mays)): 50%; plant injury at 500 g/ha (corn (Zea mays)): 80%; pest or weed control at 125 g/ha [11]: 90%; pest or weed control at 500 g/ha [11]: 90%; pest or weed control at 125 g/ha [12]: 0%; pest or weed control at 500 g/ha [12]: 70%; pest or weed control at 125 g/ha [13]: 20%; pest or weed control at 500 g/ha [13]: 40%; plant injury at 125 g/ha [14]: 60%; plant injury at 500 g/ha [14]: 70% |
| CC(C)Oc1ccc([C@H]2CNC(=O)[C@@H]2C(=O)Nc2ccccc2F)cc1 [Compound 1135] | 0% | 0% | 0% | 0% | 0% | 0% | 0% | 0% | 0% | 0% | 0% | 0% | 0% | 0% | 0% | 0% | 0% | 0% | 0% | 0% | plant injury at 125 g/ha (corn (Zea mays)): 0%; plant injury at 500 g/ha (corn (Zea mays)): 0%; pest or weed control at 125 g/ha [11]: 0%; pest or weed control at 500 g/ha [11]: 0%; pest or weed control at 125 g/ha [12]: 0%; pest or weed control at 500 g/ha [12]: 0%; pest or weed control at 125 g/ha [13]: 0%; pest or weed control at 500 g/ha [13]: 0%; plant injury at 125 g/ha [14]: 0%; plant injury at 500 g/ha [14]: 0% |
| CC(C)Oc1ccc([C@H]2CNC(=O)[C@@H]2C(=O)Nc2cccc(F)c2F)cc1 [Compound 1136] | 0% | 80% | 30% | 90% | 30% | 90% | 0% | 0% | 0% | 0% | 0% | 30% | 0% | 20% | 0% | 0% | 30% | 90% | 0% | 30% | plant injury at 125 g/ha (corn (Zea mays)): 0%; plant injury at 500 g/ha (corn (Zea mays)): 0%; pest or weed control at 125 g/ha [11]: 20%; pest or weed control at 500 g/ha [11]: 90%; pest or weed control at 125 g/ha [12]: 0%; pest or weed control at 500 g/ha [12]: 0%; pest or weed control at 125 g/ha [13]: 0%; pest or weed control at 500 g/ha [13]: 0%; plant injury at 125 g/ha [14]: 0%; plant injury at 500 g/ha [14]: 0% |
| CC(C)Oc1ccc([C@H]2CNC(=O)[C@@H]2C(=O)Nc2ccc(F)cc2F)cc1 [Compound 1137] | 0% | 0% | 0% | 0% | 0% | 0% | 0% | 0% | 0% | 0% | 0% | 0% | 0% | 0% | 0% | 0% | 0% | 0% | 0% | 0% | plant injury at 125 g/ha (corn (Zea mays)): 0%; plant injury at 500 g/ha (corn (Zea mays)): 0%; pest or weed control at 125 g/ha [11]: 0%; pest or weed control at 500 g/ha [11]: 0%; pest or weed control at 125 g/ha [12]: 0%; pest or weed control at 500 g/ha [12]: 0%; pest or weed control at 125 g/ha [13]: 0%; pest or weed control at 500 g/ha [13]: 0%; plant injury at 125 g/ha [14]: 0%; plant injury at 500 g/ha [14]: 0% |
